{"source": "patent US20240197733A1", "about": "“A GABA RECEPTOR MODULATOR FOR USE IN THE TREATMENT OF PAIN” (SANIONA A/S, priority 2021, published 2024)", "key": {"[1]": {"test_system": "electrocutaneous stimulation-induced facial pain rodent model", "assay": "ES-induced facial pain model, hot thermal hyperalgesia (lamp test, selective C fiber testing), acute treatment", "assay_type": "in vivo, Sprague-Dawley rats", "source_text": "(§1) The electrocutaneous stimulation-induced facial pain rodent model is a reproducible orofacial pain model in which depilated cheek area of rats are repeatedly subjected to electrical stimulation. Repeated electrical stimulation at low intensities produces craniofacial pain that mimics the behavioral characteristics of TN such as development of mechanical and thermal allodynia at cheeks despite no visible edema, swelling or excessive injury and tissue damage.\n(§2) Male wild type, Sprague-Dawley rats (Charles River Laboratories) born in-house at AfaSci Research Laboratory between May 24, 2020 to May 28, 2020. At approximately 3 months of age (approximately 350 g-450 g body weight) the rats were deemed suitable for the electrocutaneous stimulation-induced facial pain model. Prior to the experiment, the rats were maintained in group cages (3 rats per cage) in a controlled environment (temperature: 21.5±4.5° C./relative humidity: 35-55%) under a standard 12 h light/12 h dark lighting cycle (lights on at 06:00).\nThe required quantity of the compounds are weighed and dissolved in 100% DMSO in a volume amounting to 5% of the total volume while placed on a stirrer. The weight of the compounds refers to the free base weights. Once the solution becomes clear/transparent, the remaining volume of the vehicle is added (30% HPBCD prepared in MQ water) to final concentrations of 0.1, 0.3, and 1 mg/ml for Compound 1 and 3 mg/ml of Carbamazepine. The solutions are kept on a stirrer before- and during administration of the compounds to the animals.\nThe experimenter assessing the behavioral responses to drug administration is blinded to the drug treatment to the animals. Each treatment group is coded according the scheme below: • A. Vehicle (5% DMSO+30% HPBCD): 10 ml/kg • B. Compound 1: 1 mg/kg • C. Compound 1: 3 mg/kg • D. Compound 1: 10 mg/kg • F. Carbamazepine: 30 mg/kg\nSecond baseline measurement was carried out similarly to day 1. Immediately following the second baseline recording, each rat received 1 hr of electrocutaneous stimulation at cheek (0.4 mA intensity, 10 ms duration, 1 s inter-pulse interval). For each animal, the average of the two baseline nociceptive measurements were calculated within each pain modality (mechanical, heat- and cold pain), and used as baseline (“Baseline” point on figures).\nSimilarly, to day 1- and 2, all rats were subjected to acclimatization to test equipment and decapicone followed by measurements of ES-induced facial mechanical- heat- and cold allodynia (“0” time point on figures). Based on the individual rat's mechanical- and thermal hypersensitivity, 40 rats were selected for drug testing. Compound 1, vehicle and Carbamazepine was administered perorally in doses of 1, 3, and 10 mg/kg (Compound 1) or 30 mg/kg (carbamazepine) and drug effects on pain thresholds were evaluated 2- and 4 hours after drug administration by assessment of mechanical- (von Frey) and thermal hypersensitivity (heat- and cold stimulation respectively).\nDecrease in ES-induced pain threshold was evaluated 22 hours following electrical stimulation of the depilated left cheek area (between the eye and ear ridge, this is a receptive field of trigeminal nerve) of each rat and was manifested as facial withdrawal following application of Von Frey filaments for mechanical allodynia and a heat lamp and acetone test for thermal hyperalgesia and allodynia respectively. Baseline pain behaviors were measured similarly to ES-induced facial pain measurements, except that rats were not subjected to ES stimulation.\nImmediately following assessment of mechanical pain threshold, thermal (hot- and cold induced) pain was determined. […]"}, "[2]": {"test_system": "electrocutaneous stimulation-induced facial pain rodent model", "assay": "ES-induced facial pain model, cold thermal allodynia (acetone test), acute treatment", "assay_type": "in vivo, Sprague-Dawley rats", "source_text": "as §1, §2\nThe required quantity of the compounds are weighed and dissolved in 100% DMSO in a volume amounting to 5% of the total volume while placed on a stirrer. The weight of the compounds refers to the free base weights. […]\nSecond baseline measurement was carried out similarly to day 1. […] For each animal, the average of the two baseline nociceptive measurements were calculated within each pain modality (mechanical, heat- and cold pain), and used as baseline (“Baseline” point on figures).\nSimilarly, to day 1- and 2, all rats were subjected to acclimatization to test equipment and decapicone followed by measurements of ES-induced facial mechanical- heat- and cold allodynia (“0” time point on figures). […] Compound 1, vehicle and Carbamazepine was administered perorally in doses of 1, 3, and 10 mg/kg (Compound 1) or 30 mg/kg (carbamazepine) and drug effects on pain thresholds were evaluated 2- and 4 hours after drug administration by assessment of mechanical- (von Frey) and thermal hypersensitivity (heat- and cold stimulation respectively). […]"}, "[3]": {"test_system": "electrocutaneous stimulation-induced facial pain rodent model", "assay": "ES-induced facial pain model, cold thermal allodynia (acetone test), prophylactic and acute treatment", "assay_type": "in vivo, Sprague-Dawley rats", "conditions": "for development of cold allodynia vs vehicle: day 9 at 0 time", "method": "Cold Thermal threshold was assessed by measuring each rat's facial withdrawal latency (seconds) in response to a single 10 uL drop of acetone directly on the depilated and stimulated rat cheek. Cutoff was set at 60 seconds. Facial withdrawal response criteria were as following: burrowing head, shaking of head back-and-forth, excessive blinking, turning head away from experimenter. Unless stated otherwise, the same materials, methods, and provisions of Example 1 were applied to Example 2. The required quantity of the compound is weighed and dissolved in 100% DMSO in a volume amounting to 5% of the total volume while placed on a stirrer. The weight of the compounds refers to the free base weights. Once the solution becomes clear/transparent, the remaining volume of the vehicle is added (30% HPBCD prepared in MQ water) to final concentrations of 0.03, 0.1, and 0.3 mg/ml for Compound 1. The solutions are kept on a stirrer before- and during administration of the compounds to the animals. The experimenter assessing the behavioral responses to drug administration is blinded to the drug treatment to the animals. Each treatment group is coded according the scheme below: • A. Vehicle (5% DMSO+30% HPBCD): 10 ml/kg • B. Compound 1: 0.3 mg/kg • C. Compound 1: 1 mg/kg • D. Compound 1: 3 mg/kg • F. Compound 1: 3 mg/kg—acute Second baseline measurement was carried out similarly to day 1, For each animal, the average of the two baseline nociceptive measurements was calculated within each pain modality (mechanical, heat- and cold pain), and used as baseline (“Baseline” point on figures). Then all rats in the above respective group (A-D) are given treated as mentioned. Group F received vehicle treatment. Treatment is continued once daily to each group same as Day 2 All rats were treated with respective treatment as per day 3-7. After 1 hr of treatment, each rat was subjected to 1 hr of electrocutaneous stimulation at depilated cheek (0.4 mA intensity, 10 ms duration, 1 s inter-pulse interval). Similar to day 1- and 2, all rats were acclimatized to test equipment followed by measurements of ES-induced facial mechanical- heat- and cold allodynia (“0” time point on figures). After measurement of hypersensitivity threshold, rats from group A-D received the vehicle and three doses of Compound 1 as mentioned above while group F received single acute dose of 3 mg/kg of Compound 1. Treatment effects on pain thresholds were evaluated 2- and 4 hours after administration by assessing mechanical- (Von Frey) and thermal (heat and cold) withdrawal threshold."}, "[4]": {"target": "GABAA receptors containing the a2 subunit (Homo sapiens, UniProt P18507+P47869)", "sequence (P47869 29-451)": "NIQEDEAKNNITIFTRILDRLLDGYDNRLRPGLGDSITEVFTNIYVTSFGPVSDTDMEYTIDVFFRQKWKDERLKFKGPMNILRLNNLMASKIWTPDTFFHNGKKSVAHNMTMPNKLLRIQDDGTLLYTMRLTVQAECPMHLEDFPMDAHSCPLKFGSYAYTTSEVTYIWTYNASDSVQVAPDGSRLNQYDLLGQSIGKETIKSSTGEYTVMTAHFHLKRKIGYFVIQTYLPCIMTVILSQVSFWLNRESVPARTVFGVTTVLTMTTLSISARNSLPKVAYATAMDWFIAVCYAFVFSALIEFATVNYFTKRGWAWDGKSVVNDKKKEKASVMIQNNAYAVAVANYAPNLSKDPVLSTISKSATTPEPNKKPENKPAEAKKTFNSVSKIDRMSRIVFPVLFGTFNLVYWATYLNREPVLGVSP", "sequence (P47870 25-512 partner limits assumed)": "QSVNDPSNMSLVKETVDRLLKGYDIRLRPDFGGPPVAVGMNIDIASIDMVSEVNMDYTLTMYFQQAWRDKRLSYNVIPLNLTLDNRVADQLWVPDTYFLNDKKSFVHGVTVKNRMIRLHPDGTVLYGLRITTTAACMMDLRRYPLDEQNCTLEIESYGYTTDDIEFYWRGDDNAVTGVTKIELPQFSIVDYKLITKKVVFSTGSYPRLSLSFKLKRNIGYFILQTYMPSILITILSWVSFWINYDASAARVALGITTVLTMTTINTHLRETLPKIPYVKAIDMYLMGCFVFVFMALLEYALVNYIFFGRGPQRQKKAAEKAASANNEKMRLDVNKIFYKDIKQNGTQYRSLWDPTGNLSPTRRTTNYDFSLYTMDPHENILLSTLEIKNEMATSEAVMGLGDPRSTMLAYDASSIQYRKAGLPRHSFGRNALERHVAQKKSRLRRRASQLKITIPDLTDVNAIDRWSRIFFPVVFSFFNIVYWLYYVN", "sequence (P18507 40-475)": "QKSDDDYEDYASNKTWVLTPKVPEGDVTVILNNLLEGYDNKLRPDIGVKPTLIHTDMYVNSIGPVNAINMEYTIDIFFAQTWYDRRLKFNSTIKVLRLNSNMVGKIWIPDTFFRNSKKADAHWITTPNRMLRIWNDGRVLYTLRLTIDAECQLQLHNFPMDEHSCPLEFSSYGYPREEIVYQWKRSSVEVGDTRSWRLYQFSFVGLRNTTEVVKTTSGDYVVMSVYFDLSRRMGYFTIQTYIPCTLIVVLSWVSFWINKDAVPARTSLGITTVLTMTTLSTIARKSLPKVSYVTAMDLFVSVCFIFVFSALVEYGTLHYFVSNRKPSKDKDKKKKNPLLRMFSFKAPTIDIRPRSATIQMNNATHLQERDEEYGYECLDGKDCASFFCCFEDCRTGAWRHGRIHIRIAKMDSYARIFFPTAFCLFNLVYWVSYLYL", "conditions": "cited from earlier work"}}, "data": [{"molecule": "COc1ncc(-c2cccc(-n3cnc4cc(C(C)(C)O)cnc43)c2)c(OC)n1", "note": "[Compound 1, 2-(3-(3-(2,4-dimethoxypyrimidin-5-yl)phenyl)-3H-imidazo[4,5-b]pyridin-6-yl)propan-2-ol]", "values": [{"measurement": "effect on heat thermal hyperalgesia (facial withdrawal latency) vs vehicle", "setting": "[1]; 3 mg/kg po, post 2 and 4 hrs, p<0.05 and p<0.001 vs vehicle", "value": "significantly reversed the mechanical allodynia"}, {"measurement": "effect on heat thermal hyperalgesia (facial withdrawal latency) vs vehicle", "setting": "[1]; 10 mg/kg po, 2 and 4 hrs post dose, p<0.0001", "value": "significantly produced reversal of hyperalgesia"}, {"measurement": "reversal of hyperalgesia in the thermal heat test (conclusion)", "setting": "[1]; 10 mg/kg po, highest dose tested, similar to Carbamazepine 30 mg/kg", "value": "full reversal of hyperalgesia"}, {"measurement": "effect on heat thermal hyperalgesia (facial withdrawal latency), dose dependence", "setting": "[1]; 1, 3 and 10 mg/kg po", "value": "dose dependently reversed the heat thermal hyperalgesia"}, {"measurement": "minimal effective dose, heat thermal hyperalgesia", "setting": "[1]; po, p<0.01 and p<0.05 vs vehicle 2 and 4 hrs post dose", "value": 1, "unit": "mg/kg"}, {"measurement": "effect on cold pain threshold (acetone test, facial withdrawal latency) vs vehicle", "setting": "[2]; 10 mg/kg po, 2 and 4 hours of treatment, p<0.001 and p<0.0001 vs vehicle", "value": "significant enhancement of the cold pain threshold"}, {"measurement": "minimum effective dose, cold allodynia (acetone test)", "setting": "[2]; po, p<0.01 after 2 and 4 hrs of dosing vs vehicle", "value": 3, "unit": "mg/kg"}, {"measurement": "effect on established cold allodynia vs vehicle", "setting": "[3]; acute 3 mg/kg po on day 9, p<0.001 and p<0.0001 post 2 and 4 hrs", "value": "reversed the mechanical allodynia"}, {"measurement": "effect on established cold allodynia vs vehicle", "setting": "[3]; prophylactic 0.3 mg/kg po plus additional dose on day 9, p>0.05 post 2 hrs, p<0.01 post 4 hrs", "value": "reversed the cold allodynia dose dependently"}, {"measurement": "development of cold allodynia vs vehicle", "setting": "[3]; prophylactic 1 mg/kg po once daily for 7 days, p<0.05 vs vehicle", "value": "significantly reduced the development of cold allodynia"}, {"measurement": "effect on established cold allodynia vs vehicle", "setting": "[3]; prophylactic 1 mg/kg po plus additional dose on day 9, p<0.01 post 2 hrs, p<0.0001 post 4 hrs", "value": "reversed the cold allodynia dose dependently"}, {"measurement": "development of cold allodynia vs vehicle", "setting": "[3]; prophylactic 3 mg/kg po once daily for 7 days, p<0.0001 vs vehicle", "value": "significantly reduced the development of cold allodynia"}, {"measurement": "effect on established cold allodynia vs vehicle", "setting": "[3]; prophylactic 3 mg/kg po plus additional dose on day 9, p<0.0001 post 2 hrs and post 4 hrs", "value": "reversed the cold allodynia dose dependently"}, {"measurement": "positive allosteric modulation of GABAA receptors containing the a2 subunit", "setting": "[4]", "value": "to a minor extent"}]}]}
